The source of these data is US10221198B2, “Preparation and medical use of triazenes” (Ecole Polytechnique Federale De Lausanne (EPFL), priority 2014, dated 2019).

Holding throughout (format): cell-based
The test system of assay [1] is non-cancer human embryonic kidney cells (HEK293). The assay can be described thus: Cytotoxicity test (MTT assay) on HEK293 cells. The conditions noted are these: 72 h exposure. How it is done: (§1) MDA-MB-231 breast adenocarcinoma cells (ATCC® HTB-26™), MCF-10a human mammary epithelial cells (ATCC® CRL-10317™) and HEK293 human embryonic kidney cells (ATCC® CRL-1573™) were obtained from ATCC (Middlesex, UK), the A2780 human ovarian carcinoma cell line was obtained from the European Collection of Cell Cultures (catalogue number 93112519, Salisbury, U.K.). All cell culture media were purchased from Life Technologies (Zug, Switzerland). A2780 cells were cultured in RPMI-1640 medium (Gibco, GlutaMax), while MDA-MB-231 and HEK293 cells were cultured in Dulbecco's Modified Eagle Medium (DMEM, Gibco, GlutaMax) supplemented with 10% fetal bovine serum (FBS, Sigma-Aldrich, Buchs, Switzerland) and 1% penicillin/streptomycin (Life Technologies, Zug, Switzerland). MCF-10A were cultured in DMEM/F12 medium containing 10% horse serum and 1% antibiotics, supplemented with 10 μg/mL insulin, 20 μg/mL hydrocortisone, 20 ng/mL epidermal growth factor and 100 ng/mL cholera toxin (all from Sigma Aldrich, Buchs, Switzerland). Cells were incubated in a CO2 incubator with 5% CO2 and 100% relative humidity at 37° C. MTT (MTT=3-(4,5-dimethyl-2-thiazolyl)-2,5-diphenyl-2H-tetrazolium bromide) was purchased from Calbiochem (Zug, Switzerland). Cell viability was determined by the MTT assay. The absorption was read using a SpectraMax M52 microplate reader (Molecular Devices, Sunnyvale, Calif., USA).
(§2) Cells were seeded in 96-well plates as monolayers with 100 μL of cell suspension (approximately 5000 cells) per well and preincubated for 24 h in medium supplemented with 10% FBS. With the exception of dacarbazine, all compounds were dissolved in DMSO. In the case of dacarbazine, an aqueous stock solution of the monocitrate was prepared in situ and immediately used (light sensitivity). The stock solutions were serially diluted in the culture medium to the appropriate concentration, to give a final DMSO concentration of no higher than 0.5%. 100 μL of the compound solution was added to each well, and the plates were incubated for 72 h. Subsequently, MTT (5 mg/mL solution) was added to the cells and the plates were incubated for a further 2 h. The culture medium was aspirated and the purple formazan crystals formed by the mitochondrial dehydrogenase activity of vital cells were dissolved in DMSO. The optical density, directly proportional to the number of surviving cells, was quantified at 590 nm using a multiwell plate reader, and the fraction of surviving cells was calculated from the absorbance of untreated control cells. Evaluation is based on means from at least two independent experiments, each comprising triplicates per concentration level.

Assay [2] has as its system human mammary epithelial cells (MCF-10A). The assay can be described thus: Cytotoxicity test (MTT assay) on MCF-10A cells. The note with it: 72 h exposure. The procedure:
as §1, §2
For orientation: Formazan colour is commonly taken as a measure of viable cells.

Assay [3] deals with human invasive breast cancer cells (MDA-MB-231). Nature of the assay: Cytotoxicity test (MTT assay) on MDA-MB-231 cells. The note with it: for IC50: MDA-MB-231, 72 h exposure, MTT assay, human invasive breast cancer cells; for SC, selectivity coefficient, IC50 MCF-10A/IC50 MDA-MB-231: ratio of 72 h IC50 values, MCF-10A over MDA-MB-231. The procedure:
as §1, §2

Assay [4] relates to human ovarian cancer cells (A2780). The assay can be described thus: Cytotoxicity test (MTT assay) on A2780 cells. The conditions noted are these: 72 h exposure. How it is done:
as §1, §2

Each structure is given as a SMILES string.

A word on the IC50: it is the midpoint of a concentration-inhibition curve. As for `CN(C)N=NC#CC(C)(C)C` [Compound 5, 1-(3,3-Dimethylbut-1-ynyl)-3,3-dimethyltriaz-1-ene], the IC50 in assay [1] stood at 19 ± 2 µM; in assay [2], 52 ± 11 µM; in assay [3], 38 ± 3 µM; in assay [4], 22 ± 3 µM. In addition, the “SC, selectivity coefficient, IC50 MCF-10A/IC50 MDA-MB-231” value (from here on “SC, selectivity coefficient”) in assay [3] is given as 1.4.
As for `COCC#CN=NN(C)C` [Compound 14, 1-(3-Methoxyprop-1-ynyl)-3,3-dimethyltriaz-1-ene], the half-maximal inhibitory concentration (IC50) in assay [1] turned out to be 24 ± 4 µM; in assay [2] it was 177 ± 23 µM; in assay [3], 72 ± 9 µM; in assay [4], 43 ± 6 µM. In assay [3], the “SC, selectivity coefficient” value is on record as 2.5.
The corresponding values for `CC(C)N(N=NC#CC(C)(C)C)C(C)C` [Compound 2, 1-(3,3-Dimethylbut-1-ynyl)-3,3-diisopropyltriaz-1-ene] are 125 ± 5 µM, 299 ± 43 µM, 176 ± 60 µM, 160 ± 40 µM and 1.7.
In the same order, the values of `CCCCC#CN=NN(C(C)C)C(C)C` [Compound 6, 1-(Hex-1-ynyl)-3,3-diisopropyltriaz-1-ene] are 165 ± 65 µM, 254 ± 52 µM, 199 ± 21 µM, 143 ± 29 µM and 1.2.
In the same order, the values of `CN(C)CC#CN=NN(C)C` [Compound 15, 3-(3,3-Dimethyltriaz-1-enyl)-N,N-dimethylprop-2-yn-1-amine] are 15 ± 4 µM, 113 ± 7 µM, 45 ± 15 µM, 47 ± 3 µM and 2.4.
`COCC#CN=NN(C)C(C)C` [Compound 9, 3-Isopropyl-1-(3-methoxyprop-1-ynyl)-3-methyltriaz-1-ene]: the IC50 in assay [1] is 14 ± 1 µM; in assay [2] it was 208 ± 49 µM; in assay [3], 32 ± 4 µM; in assay [4], 20 ± 3 µM. In assay [3], the “SC, selectivity coefficient” value is given as 6.5.
In the same order, the values of `CC(C)N(C)N=NC#CC(C)(C)C` [Compound 4, 1-(3,3-Dimethylbut-1-ynyl)-3-isopropyl-3-methyltriaz-1-ene] are 29 ± 4 µM, 192 ± 12 µM, 70 ± 10 µM, 32 ± 4 µM and 2.7.
The corresponding values for `CC(C)N(C)N=NC#CCN(C)C` [Compound 10, 3-(3-Isopropyl-3-methyltriaz-1-enyl)-N,N-dimethylprop-2-yn-1-amine] are 21 ± 5 µM, 86 ± 4 µM, 14 ± 2 µM, 34 ± 4 µM and 6.1.
Consider `CC(C)N(N=NC#Cc1ccccc1)C(C)C` [Compound 1, 3,3-Diisopropyl-1-(phenylethynyl)triaz-1-ene], for which the IC50 in assay [1] is 44 ± 11 µM; in assay [2], 116 ± 2 µM; in assay [3], above 500 µM; in assay [4] it was 56 ± 4 µM.
